# Test results published in PubChem BioAssay (NCI).
#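 Compound exposure: 48 hours, 5 concentrations, 96-well plates. TGI marks complete inhibition of growth.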
# Assays:
# Assay in all cases: NCI-60 cell line screen, 48 h
# RPMI-8226 leukemia = system: RPMI-8226 leukemia
# HL-60(TB) leukemia = system: HL-60(TB) leukemia
# RXF 393 renal = system: RXF 393 renal
# KM12 colon = system: KM12 colon
# NCI-H23 lung = system: NCI-H23 lung
# SN12C renal = system: SN12C renal
# SK-MEL-28 melanoma = system: SK-MEL-28 melanoma
# DU-145 prostate = system: DU-145 prostate
# HOP-92 NSCLC = system: HOP-92 NSCLC
# MOLT-4 leukemia = system: MOLT-4 leukemia
# BT-549 breast = system: BT-549 breast
# M14 melanoma = system: M14 melanoma
# HCT-116 colon = system: HCT-116 colon
# NCI-H522 lung = system: NCI-H522 lung
# MDA-MB-231 breast = system: MDA-MB-231 breast
# PC-3 prostate = system: PC-3 prostate
# SR leukemia = system: SR leukemia
# MCF7 breast = system: MCF7 breast
# EKVX NSCLC = system: EKVX NSCLC
# ACHN renal = system: ACHN renal
# HOP-62 NSCLC = system: HOP-62 NSCLC
# SF-268 CNS = system: SF-268 CNS
# UACC-257 melanoma = system: UACC-257 melanoma
# TK-10 renal = system: TK-10 renal
# U251 CNS = system: U251 CNS
# HT29 colon = system: HT29 colon
# SF-539 CNS = system: SF-539 CNS
# MDA-MB-435 = system: MDA-MB-435
# NCI-H226 lung = system: NCI-H226 lung
# OVCAR-5 ovarian = system: OVCAR-5 ovarian
# MDA-N = system: MDA-N
# A549 NSCLC = system: A549 NSCLC
# HS 578T breast = system: HS 578T breast
# SF-295 CNS = system: SF-295 CNS
# SK-MEL-2 melanoma = system: SK-MEL-2 melanoma
# SK-OV-3 ovarian = system: SK-OV-3 ovarian
# OVCAR-3 ovarian = system: OVCAR-3 ovarian
# MALME-3M melanoma = system: MALME-3M melanoma
# SNB-75 CNS = system: SNB-75 CNS
# HCT-15 colon = system: HCT-15 colon
# OVCAR-4 ovarian = system: OVCAR-4 ovarian
# UO-31 renal = system: UO-31 renal
# COLO 205 colon = system: COLO 205 colon
# A498 renal = system: A498 renal
# UACC-62 melanoma = system: UACC-62 melanoma
# SW-620 colon = system: SW-620 colon
# LOX IMVI melanoma = system: LOX IMVI melanoma
# IGROV1 ovarian = system: IGROV1 ovarian
# CAKI-1 renal = system: CAKI-1 renal
# OVCAR-8 ovarian = system: OVCAR-8 ovarian
# NCI/ADR-RES ovarian = system: NCI/ADR-RES ovarian
# 786-0 renal = system: 786-0 renal
# T-47D breast = system: T-47D breast
# CCRF-CEM leukemia = system: CCRF-CEM leukemia
# NCI-H460 lung = system: NCI-H460 lung
# K-562 leukemia = system: K-562 leukemia
# SK-MEL-5 melanoma = system: SK-MEL-5 melanoma
# SNB-19 CNS = system: SNB-19 CNS
smiles,measurement,setting,value
Nc1ccc2nc3n(c(=O)c2c1)CCCCC3,TGI,RPMI-8226 leukemia,> 100 µM
same,TGI,HL-60(TB) leukemia,> 100 µM
same,TGI,RXF 393 renal,> 100 µM
same,TGI,KM12 colon,> 100 µM
same,TGI,NCI-H23 lung,> 100 µM
same,TGI,SN12C renal,> 100 µM
same,TGI,SK-MEL-28 melanoma,> 100 µM
same,TGI,DU-145 prostate,> 100 µM
same,TGI,HOP-92 NSCLC,> 100 µM
same,TGI,MOLT-4 leukemia,> 100 µM
same,TGI,BT-549 breast,> 100 µM
same,TGI,M14 melanoma,> 100 µM
same,TGI,HCT-116 colon,> 100 µM
same,TGI,NCI-H522 lung,> 100 µM
same,TGI,MDA-MB-231 breast,> 100 µM
same,TGI,PC-3 prostate,> 100 µM
same,TGI,SR leukemia,> 100 µM
same,TGI,MCF7 breast,> 100 µM
same,TGI,EKVX NSCLC,> 100 µM
same,TGI,ACHN renal,> 100 µM
same,TGI,HOP-62 NSCLC,> 100 µM
same,TGI,SF-268 CNS,> 100 µM
same,TGI,UACC-257 melanoma,> 100 µM
same,TGI,TK-10 renal,> 100 µM
same,TGI,U251 CNS,> 100 µM
same,TGI,HT29 colon,> 100 µM
same,TGI,SF-539 CNS,> 100 µM
same,TGI,MDA-MB-435,> 100 µM
same,TGI,NCI-H226 lung,> 100 µM
same,TGI,OVCAR-5 ovarian,> 100 µM
same,TGI,MDA-N,> 100 µM
same,TGI,A549 NSCLC,> 100 µM
same,TGI,HS 578T breast,> 100 µM
same,TGI,SF-295 CNS,> 100 µM
same,TGI,SK-MEL-2 melanoma,> 100 µM
same,TGI,SK-OV-3 ovarian,> 100 µM
same,TGI,OVCAR-3 ovarian,> 100 µM
same,TGI,MALME-3M melanoma,> 100 µM
same,TGI,SNB-75 CNS,> 100 µM
same,TGI,HCT-15 colon,> 100 µM
same,TGI,OVCAR-4 ovarian,> 100 µM
same,TGI,UO-31 renal,> 100 µM
same,TGI,COLO 205 colon,> 100 µM
same,TGI,A498 renal,> 100 µM
same,TGI,UACC-62 melanoma,> 100 µM
same,TGI,SW-620 colon,> 100 µM
same,TGI,LOX IMVI melanoma,> 100 µM
same,TGI,IGROV1 ovarian,> 100 µM
same,TGI,CAKI-1 renal,> 100 µM
same,TGI,OVCAR-8 ovarian,> 100 µM
same,TGI,NCI/ADR-RES ovarian,> 100 µM
same,TGI,786-0 renal,> 100 µM
same,TGI,T-47D breast,> 100 µM
same,TGI,CCRF-CEM leukemia,> 100 µM
same,TGI,NCI-H460 lung,> 100 µM
same,TGI,K-562 leukemia,> 100 µM
same,TGI,SK-MEL-5 melanoma,> 100 µM
COc1ccc(C(=O)N/N=C2\C(=O)c3c(C)cc(C)cc3CC2(C)C)cc1,TGI,RPMI-8226 leukemia,57.5 µM
same,TGI,HL-60(TB) leukemia,51.5 µM
same,TGI,RXF 393 renal,32.6 µM
same,TGI,KM12 colon,39.9 µM
same,TGI,NCI-H23 lung,> 100 µM
same,TGI,SN12C renal,37.2 µM
same,TGI,SK-MEL-28 melanoma,42.2 µM
same,TGI,DU-145 prostate,63.8 µM
same,TGI,HOP-92 NSCLC,31.3 µM
same,TGI,MOLT-4 leukemia,37.3 µM
same,TGI,BT-549 breast,36.2 µM
same,TGI,M14 melanoma,38.8 µM
same,TGI,HCT-116 colon,32.1 µM
same,TGI,NCI-H522 lung,33.6 µM
same,TGI,MDA-MB-231 breast,56.1 µM
same,TGI,PC-3 prostate,47.7 µM
same,TGI,SR leukemia,47.9 µM
same,TGI,MCF7 breast,36.4 µM
same,TGI,EKVX NSCLC,70.1 µM
same,TGI,ACHN renal,58.7 µM
same,TGI,HOP-62 NSCLC,37.4 µM
same,TGI,SF-268 CNS,42.9 µM
same,TGI,UACC-257 melanoma,98.5 µM
same,TGI,TK-10 renal,> 100 µM
same,TGI,U251 CNS,31.9 µM
same,TGI,HT29 colon,36.9 µM
same,TGI,SF-539 CNS,46 µM
same,TGI,SNB-19 CNS,84 µM
same,TGI,MDA-MB-435,35.1 µM
same,TGI,NCI-H226 lung,45.7 µM
same,TGI,OVCAR-5 ovarian,55.5 µM
same,TGI,MDA-N,39.3 µM
same,TGI,A549 NSCLC,44.2 µM
same,TGI,HS 578T breast,41.9 µM
same,TGI,SF-295 CNS,40.1 µM
same,TGI,SK-MEL-2 melanoma,36.2 µM
same,TGI,SK-OV-3 ovarian,> 100 µM
same,TGI,OVCAR-3 ovarian,30.9 µM
same,TGI,MALME-3M melanoma,31.6 µM
same,TGI,SNB-75 CNS,56.5 µM
same,TGI,HCT-15 colon,64.3 µM
same,TGI,OVCAR-4 ovarian,> 100 µM
same,TGI,COLO 205 colon,49.3 µM
same,TGI,A498 renal,42.4 µM
same,TGI,UACC-62 melanoma,31.6 µM
same,TGI,SW-620 colon,84.2 µM
same,TGI,LOX IMVI melanoma,34.2 µM
same,TGI,IGROV1 ovarian,41.5 µM
same,TGI,CAKI-1 renal,> 100 µM
same,TGI,OVCAR-8 ovarian,56.6 µM
same,TGI,NCI/ADR-RES ovarian,80.6 µM
same,TGI,786-0 renal,36.1 µM
same,TGI,T-47D breast,40.4 µM
same,TGI,CCRF-CEM leukemia,65.6 µM
same,TGI,NCI-H460 lung,78.4 µM
same,TGI,K-562 leukemia,64.7 µM
same,TGI,SK-MEL-5 melanoma,31.9 µM
